Assay results reported in US20220218679A1, “NOVEL COMPOUNDS AND PHARMACEUTICAL COMPOSITIONS THEREOF FOR THE TREATMENT OF INFLAMMATORY DISORDERS” (Galapagos NV, priority 2019, published 2022).
≈ marks a conversion by molar mass, not a printed value. Like-named read-outs stand apart in the source and are kept apart here.

Experiments:
[1] = tested on: CL097 triggered TNFα release in human whole blood; test: Ex vivo human TNFα release inhibition (human whole blood assay); type: cell-based; conditions: CL097 2 μg/mL, 3 h 30 min at 37° C.
From the text: 4.10.1. Ex Vivo Human IFNα and TNFα Release Inhibition (Human Whole Blood Assay)
The aim of the assay is to evaluate the activity of compounds of the invention on the activated TLR/IRAK-4 pathway in an ex vivo human whole blood setting. Toll-like receptors (TLRs) are pattern recognition receptors that recognize a wide variety of microbial molecules, called pathogen-associated molecular patterns (PAMPs). Human TLR7 and TLR8 recognize imidazoquinoline compounds (e.g., CL097—CAS n #1026249-18-2) and single stranded RNAs as their natural ligands. Activation of TLRs leads to the production of several cytokines (e.g., IFNα, TNFα, IL-8, IL-6) by the TLR agonist-treated cells, whereas IRAK4 leads to the production of IFNα. Cytokine release is used as readout in this assay and represents a measure for the level of inhibition of the TLR/IRAK-4 pathway by the tested compound. It should be noted that in the context of the complete organism, other sources for these cytokines exist that are not dependent on the TLR/IRAK-4 pathway, such as e.g., macrophages (upon activation of the Fcγ receptor (Yan et al., 2012)) or T cells (upon activation of the T cell receptor (Brehm et al., 2005)).
4.10.1.1. Experimental Design
Blood was collected from healthy volunteers into lithium heparin tubes by venipuncture, then gently inverted several times to prevent clotting and incubated for at least 15 min at 37° C. on a rocking mixer shaker. Then, 100 μL of blood was dispensed into polypropylene 96-well microplate and pre-incubated in duplicate with 0.3% DMSO or test compound at different concentrations (from 30 to 0.01 μM, 3-fold dilutions to get 0.3% DMSO at the final) for 15 min at 37° C. After this pre-incubation, blood was triggered with CL097 (2 μg/mL from 1 mg/mL solution in water; InvivoGen, tlrl-c97) for 3 h 30 min at 37° C. Microtubes were centrifuged at 5000×g for 10 min at 4° C. and approximately 40 μL of plasma were collected into a polystyrene 96-well plate. Plasma could be analyzed freshly, within 30 min after triggering, or frozen at −80° C. Finally, the quantification of TNFα and IFNα were performed in the plasma using AlphaLISA Kit for TNFα and IFNα according to the manufacturer's instructions and read on the Ensight (PerkinElmer).
For each blood sample, the TNFα concentrations of the samples were determined from the fit. Data were then expressed a percentage of inhibition PIN for each replicate using the formula:
With mean TNFα with CL097=mean TNFα concentration of replicate samples triggered with CL097; TNFαsample1=TNFα concentration of sample 1; mean TNFα with vehicle=mean TNFα concentration of replicate samples treated with vehicle.
Curve fitting for pIC50 determination were generated using mean PIN±sem. Graphs and pIC50 calculations were derived using Prism 5.03 software (GraphPad).

Thermodynamic solubility = type: physicochemical; conditions: for solubility thermodynamic at 24 h: 37 °C, thermodynamic from solid
From the text: 4.2. Thermodynamic Solubility
Poor solubility, in particular poor thermodynamic solubility can limit the absorption of compounds from the gastrointestinal tract which in turn may reduce oral bioavailability.
Thermodynamic solubility investigates the solubility of a compound as a saturated solution in equilibrium, by opposition to kinetic solubility, which measures the solubility of a metastable solution where supersaturation may occur and provide over estimation of the actual solubility of the compound. (Klein, 2010)
4.2.2. Thermodynamic Solubility—Protocol 2
In a 8 mL glass vial, 1-2 mg of dry matter of compound were added and stirred with the suitable buffers (Fed State Simulated Intestine Fluid, FeSSIF, or Fasted State Simulated Intestine Fluid, FaSSIF, or Fasted State Simulated Gastric Fluid, FaSSGF, or phosphate buffer pH 7.4) for 24 h at r.t. (for the buffer pH 7.4) or 37° C. (for the GI fluids). The concentration of the mixture was 1 mg/mL.
A volume of 1000 μL were sampled, centrifuged for 10 min at 10 000 rpm and 500 μL of the supernatant were filtered on captiva plate. The samples were diluted in duplicates in DMSO (F100 and F10). Then, a final dilution (F100) in 80/20 H2O/MeCN containing the internal standard (warfarin) was used for LCMS-MS analysis.
A standard curve was made starting from a 40,000 ng/mL stock in DMSO, freshly prepared from dry matter. Then, successive concentrations at 15,000, 11,000, 6,000, 2,500, 1,000, 375, 150 and 75 ng/mL in DMSO were prepared.
Three quality control samples were made: one of 10,000, 1,500 and 200 ng/mL in DMSO, also starting from the DMSO working stock solution at 40,000 ng/mL.
The standard curve and quality controls were diluted a F100 in 80/20 H2O/MeCN (with internal standard) and analyzed on LC/MS-MS (API4000 or API5500).
The samples were analyzed on LC-MS with a flow rate of 0.6 mL/min. The mobile phase A was 0.1% formic acid in water and the mobile phase B was 0.1% formic acid in 90% MeCN and 10% of H2O. The sample was run under positive or negative ion spray on Pursuit C18—5 μm (2.0×20 mm) column, from Agilent.
The ratio analyte/internal standard peaks areas of the standard curve were plotted in a graph and a linear or polynomial of the second order equation was used to calculate the unknown concentrations of the test compound.
Solubility values were reported in μg/mL.

[2] = Fasted State Simulated Gastric Fluid, 24 h, 37° C.
[3] = Fasted State Simulated Intestine Fluid (FaSSIF), fassif, Fasted State Simulated Intestine Fluid, read-out: Tsol FaSSIF
[4] = Fed State Simulated Intestine Fluid (FeSSIF), fessif, Fed State Simulated Intestine Fluid, read-out: Tsol FeSSIF
[5] = Fasted State Simulated Gastric Fluid (FaSSGF), fassgf or other biorelevant, Fasted State Simulated Gastric Fluid, read-out: Tsol FaSSGF

Row | SMILES | IC50 ([1]; Homo sapiens) [nM] | Tsol FaSSGF (Thermodynamic solubility; [2]) [µg/mL] | solubility thermodynamic at 24 h (Thermodynamic solubility; [3]) [µg/mL] | solubility thermodynamic at 24 h (Thermodynamic solubility; [4]) [µg/mL] | solubility thermodynamic at 24 h (Thermodynamic solubility; [5]) [µg/mL] | IC50 [1] [nM] | Tsol FaSSIF (Thermodynamic solubility; Fasted State Simulated Intestine Fluid, 24 h, 37° C.) [µg/mL] | Tsol FeSSIF (Thermodynamic solubility; Fed State Simulated Intestine Fluid, 24 h, 37° C.) [µg/mL]
1 | CCOc1cn2nc(CCC(C)(C)O)cc2cc1NC(=O)c1cccn(C(F)F)c1=O [Compound 9, 1-(difluoromethyl)-N-[6-ethoxy-2-(3-hydroxy-3-methyl-butyl)pyrazolo[1,5-a]pyridin-5-yl]-2-oxo-pyridine-3-carboxamide] | 500 to 1000 |  | 3.96 (≈ 9.12 µM) |  | 3.82 (≈ 8.79 µM) |  |  | 
2 | CCOc1cn2nc(CCC(C)(C)O)cc2cc1NC(=O)c1cccn(C)c1=O [Compound 18, N-[6-ethoxy-2-(3-hydroxy-3-methyl-butyl)pyrazolo[1,5-a]pyridin-5-yl]-1-methyl-2-oxo-pyridine-3-carboxamide] | 500 to 1000 |  | 20.6 (≈ 51.7 µM) | 84.1 (≈ 211 µM) | 68.9 (≈ 173 µM) |  |  | 
3 | CNC(=O)c1cn2nc(C3CCOCC3)cc2cc1NC(=O)c1cccc(C(F)F)n1 [Compound 15, 5-[[6-(difluoromethyl)pyridine-2-carbonyl]amino]-N-methyl-2-tetrahydropyran-4-yl-pyrazolo[1,5-a]pyridine-6-carboxamide] | > 5000 |  | < 0.75 |  | < 0.75 |  |  | 
4 | COc1cn2nc(CCC(C)(C)O)cc2cc1NC(=O)c1cccn(C(F)F)c1=O [Compound 7, 1-(difluoromethyl)-N-[2-(3-hydroxy-3-methyl-butyl)-6-methoxy-pyrazolo[1,5-a]pyridin-5-yl]-2-oxo-pyridine-3-carboxamide] | 1000 to 5000 |  | 28 (≈ 66.6 µM) | 93.9 (≈ 223 µM) | > 1000 |  |  | 
5 | COc1cn2nc(CCC(C)(C)O)cc2cc1NC(=O)c1cccn(C2CCC2)c1=O [Compound 21, 1-cyclobutyl-N-[2-(3-hydroxy-3-methyl-butyl)-6-methoxy-pyrazolo[1,5-a]pyridin-5-yl]-2-oxo-pyridine-3-carboxamide] | 1000 to 5000 |  | 16.4 (≈ 38.6 µM) |  |  |  |  | 
6 | COc1cn2nc(CCC(C)(C)O)cc2cc1NC(=O)c1cccn(C)c1=O [Compound 2, N-[2-(3-hydroxy-3-methylbutyl)-6-methoxypyrazolo[1,5-a]pyridin-5-yl]-1-methyl-2-oxopyridine-3-carboxamide] | 0.1 to 500 |  | 10.2 (≈ 26.5 µM) |  |  |  |  | 
7 | COc1cn2nc(CC(F)C(C)(C)O)cc2cc1NC(=O)c1cccn(C2CC2)c1=O (centres unmarked) [Compound 22, 1-cyclopropyl-N-[2-(2-fluoro-3-hydroxy-3-methyl-butyl)-6-methoxy-pyrazolo[1,5-a]pyridin-5-yl]-2-oxo-pyridine-3-carboxamide] | 0.1 to 500 |  | 14 (≈ 32.7 µM) | 75.9 (≈ 177 µM) | 50.6 (≈ 118 µM) |  |  | 
8 | [2H]C([2H])([2H])C(O)(CCc1cc2cc(NC(=O)c3cccn(C4CC4)c3=O)c(OC)cn2n1)C([2H])([2H])[2H] [Compound 23, 1-cyclopropyl-N-[6-methoxy-2-[4,4,4-trideuterio-3-hydroxy-3-(trideuteriomethyl)butyl]pyrazolo[1,5-a]pyridin-5-yl]-2-oxo-pyridine-3-carboxamide] | 0.1 to 500 |  | 16 (≈ 38.4 µM) | 93 (≈ 223 µM) | 104 (≈ 250 µM) |  |  | 
9 | CNC(=O)c1cn2nc(CCC(C)(C)O)cc2cc1NC(=O)c1cccc(C(F)(F)F)n1 [Compound 5, 2-(3-hydroxy-3-methylbutyl)-N-methyl-5-[[6-(trifluoromethyl)pyridine-2-carbonyl]amino]pyrazolo[1,5-a]pyridine-6-carboxamide] | 1000 to 5000 |  | 2.26 (≈ 5.03 µM) | 14.2 (≈ 31.6 µM) | 1.96 (≈ 4.36 µM) |  |  | 

Next, values leading:

Row | IC50 ([1]; Homo sapiens) [nM] | Tsol FaSSGF (Thermodynamic solubility; [2]) [µg/mL] | solubility thermodynamic at 24 h (Thermodynamic solubility; [3]) [µg/mL] | solubility thermodynamic at 24 h (Thermodynamic solubility; [4]) [µg/mL] | solubility thermodynamic at 24 h (Thermodynamic solubility; [5]) [µg/mL] | IC50 [1] [nM] | Tsol FaSSIF (Thermodynamic solubility; Fasted State Simulated Intestine Fluid, 24 h, 37° C.) [µg/mL] | Tsol FeSSIF (Thermodynamic solubility; Fed State Simulated Intestine Fluid, 24 h, 37° C.) [µg/mL] | SMILES
10 | 500 to 1000 | 389 | 20.2 (≈ 47.1 µM) | 59.6 (≈ 139 µM) |  |  |  |  | COc1cn2nc(CC(F)C(C)(C)O)cc2cc1NC(=O)c1cccn(C2CC2)c1=O (single isomer, unassigned; enantiomer a) [Compound 25, 1-cyclopropyl-N-[2-(2-fluoro-3-hydroxy-3-methyl-butyl)-6-methoxy-pyrazolo[1,5-a]pyridin-5-yl]-2-oxo-pyridine-3-carboxamide Enantiomer A]
11 | 500 to 1000 |  | 24.6 (≈ 58 µM) | 81 (≈ 191 µM) | 75.7 (≈ 178 µM) |  |  |  | CCOc1cn2nc(CCC(C)(C)O)cc2cc1NC(=O)c1cccn(C2CC2)c1=O [Compound 17, 1-cyclopropyl-N-[6-ethoxy-2-(3-hydroxy-3-methyl-butyl)pyrazolo[1,5-a]pyridin-5-yl]-2-oxo-pyridine-3-carboxamide]
12 |  | 818 |  |  |  | 1000 to 5000 | 34.5 | 52.7 | COc1cn2nc(CC(F)C(C)(C)O)cc2cc1NC(=O)c1cccn(C2CC2)c1=O (single isomer, unassigned; enantiomer b) [Compound 26, 1-cyclopropyl-N-[2-(2-fluoro-3-hydroxy-3-methyl-butyl)-6-methoxy-pyrazolo[1,5-a]pyridin-5-yl]-2-oxo-pyridine-3-carboxamide Enantiomer B]
13 | 0.1 to 500 |  | 0.75 (≈ 1.72 µM) | 6.01 (≈ 13.8 µM) | < 0.75 |  |  |  | CC(C)(O)CCc1cc2cc(NC(=O)c3cccc(C(F)(F)F)n3)c(C(N)=O)cn2n1 [Compound 4, 2-(3-hydroxy-3-methylbutyl)-5-[[6-(trifluoromethyl)pyridine-2-carbonyl]amino]pyrazolo[1,5-a]pyridine-6-carboxamide]
14 | 1000 to 5000 |  | 0.801 (≈ 1.9 µM) | 27.6 (≈ 65.3 µM) | 106 (≈ 251 µM) |  |  |  | COc1cn2nc(CCC(C)(C)O)cc2cc1NC(=O)c1cccc(C(F)(F)F)n1 [Compound 3, N-[2-(3-hydroxy-3-methylbutyl)-6-methoxypyrazolo[1,5-a]pyridin-5-yl]-6-(trifluoromethyl)pyridine-2-carboxamide]
15 | 1000 to 5000 |  | 183 (≈ 397 µM) |  | > 1000 |  |  |  | CNC(=O)c1cn2nc(C3CCN(C)CC3)cc2cc1NC(=O)c1cccc(C(F)(F)F)n1 [Compound 12, N-methyl-2-(1-methyl-4-piperidyl)-5-[[6-(trifluoromethyl)pyridine-2-carbonyl]amino]pyrazolo[1,5-a]pyridine-6-carboxamide]
